Experimental data taken from patent US20250376481A1, “POLYCYCLIC CARBAMOYL PYRIDONE DERIVATIVE, PREPARATION METHOD THEREFOR AND PHARMACEUTICAL COMPOSITION THEREOF” (NANJING AIDEA PHARMACEUTICAL TECHNOLOGY CO., LTD., priority 2021, published 2025).

What was measured:
[1] = Cytotoxicity test (cell viability, CellTier Glo); assay type: cell-based; conditions: human
Experimental: • Virus: The HIV-1 pseudovirus used in this experiment was a replication deficient virus, which is constructed by WuXi AppTec. • HEK 293T cell line was purchased from ATCC, and Item No. is CRL-11268. Cells were cultured in DMEM medium with 10% fetal bovine serum and 1% double antibody. • Reagents
On the first day, HEK 293T cells were inoculated into a 96 well test plate at the density of 55000 cells per well and […] per well, and incubated overnight in a 5% CO2 and 37° C. incubator.
On the second day, the tested compounds (compounds provided in the example of the present invention) and the control compounds were diluted 4-fold with cell culture medium for a total of 8 concentration points, and 50 μL diluted compounds were added to each well, and each well was performed duplicate.
Cell Control (cells, no compound treatment or virus infection) and virus control (cells infected with virus, no compound treatment) were set up. The final initial test concentration of the tested compounds and control compounds was 1000 nM (Table 1), and the amount of virus infection was 100 TCID50 per well. The total volume of cell culture medium was 200 μL per well, and the final concentration of DMSO in the culture medium was 0.5%.
The cells were cultured in a 5% CO2 and 37° C. incubator for additional 3 days.
On the fifth day, in the cytotoxicity test plates, 100 μL cell supernatant were sucked from each well, 100 μL cell viability assay reagent CellTier Gloin was added in dark. Cell viability in each well was detected by BioTek enzyme-linked immunosorbent assay reader, and the data was used for sample cytotoxicity analysis.
Dose-response curve was drawn through GraphPad Prism software. The calculation equations for antiviral activity (% Inhibition) and cell viability (% cell viability) were as follow:
The values of EC50 and CC50 were analyzed by GraphPad Prism (version 5) software, and nonlinear fitting analysis was used for inhibitory activity and cell viability of the compounds, and the fitting method was “log (inhibitor) vs. response—Variable slope”.
3. The HIV-1 pseudovirus experiment was applied to determinate the in vitro antiviral activity and cytotoxicity of the tested compound on HEK 293T cells, and the experimental results were shown in the table below.

[2] = PK test of compounds (mouse); assay type: in vivo, ICR mice
Experimental: The mice were not fed until 5 pm on the day before administration, and fasted overnight with water. The mice in Group IV were administered with 2 mg/kg, while those in Group PO were administered with 10 mg/kg. Feeding was resumed 2 hours after administration. For mice administered by gavage, 20 μL blood was collected from the saphenous vein in calf before administration and 0.25, 0.5, 1, 2, 4, 8, and 24 hours after administration, respectively, and placed in EDTA-K2 anticoagulant blood collection tubes, and then the blood would be placed on ice until centrifuged to obtain plasma samples. The plasma samples were centrifuged at 4° C. (3500 rpm, 10 min), and after separation, the samples were transferred to EP tubes and stored at −80° C. for detection. For mice admistrated by intravenous injection, 20 μL blood was collected from the saphenous vein in calf before administration and 0.0833, 0.25, 0.5, 1, 2, 4, 8 and 24 hours after administration, respectively, and placed in EDTA-K2 anticoagulant blood collection tubes, and then the blood would be placed on ice until centrifuged to obtain a plasma sample. The plasma samples were centrifuged at 4° C. (3500 rpm, 10 min), and after separation, the samples were transferred to EP tubes and stored at −80° C. for detection. The level of tested compounds in blood plasma of mice, who had orally administrated with different concentrations of drugs were determinated: 10 μL mouse blood at each time point after administration was taken, 100 μL methanol containing an internal standard (100 ng/mL) was added, vortex mixed for 1 minute, centrifuged at 4° C. (12000 rmp, 5 minutes), and 1 μL supernatant was taken from the plasma samples for LC-MS/MS analysis.

C[C@H]1N2C(=O)c3c(O)c(=O)c(C(=O)NCc4ccc(F)cc4F)cn3C[C@@H]2OCC12CC2 [Compound 1]
CC50 at 3 days [1]: > 1000 nM | bioavailability (in words) ([2]; PK test in mice): good bioavailability | half-life ([2]; male, mouse, plasma, ICR mice, PO 10 mg/kg): 262 ± 28.2 min | bioavailability ([2]; male, mouse, plasma, ICR mice, PO 10 mg/kg (IV 2 mg/kg)): 57%
